Results: PubChem BioAssay AID1996
Values after ≈ are worked out from the molar mass of the structure shown.

Conditions: buffer; pH 7.4; 200.0 µM

Row | Structure (SMILES) | solubility kinetic [µg/mL]
1 | Cc1c(Cl)cccc1NC(=O)CCN1CCOCC1 | > 42.4
2 | COc1ccc2oc(C(=O)OCC(=O)N3CC(C)OC(C)C3)c(C)c2c1 (centres undefined) | 51.6 (≈ 143 µM)
3 | Cc1cc(C)c2c3c(oc2n1)C(=O)N(c1cccc(Cl)c1)CC(=O)N3 | 0.7 (≈ 1.97 µM)
4 | COc1ccc2cc(Br)ccc2c1CC(=O)NCCCN1CCOCC1 | > 63.2
5 | Cc1cccc2c1N(CCOc1ccccc1)C(=O)C2=O | 3.4 (≈ 12.1 µM)
6 | CCN1CCCC1Cn1cnc2c([nH]c3ccc(OC)cc32)c1=O (centres undefined) | > 49
7 | COc1ccc(OC)c(NC(=O)NCc2cccnc2)c1 | > 43.1
8 | NC(=O)C1CCCN(Cc2ccc3ccccc3c2)C1 (centres undefined) | 29.2 (≈ 109 µM)
9 | Cc1cc(C(=O)O/N=C(\N)c2ccncc2)ccc1[N+](=O)[O-] | 25.1 (≈ 83.6 µM)
10 | CC(=O)OC1OCCOC1NC(=S)Nc1ccc(C)cc1 (centres undefined) | 44.4 (≈ 143 µM)
11 | Fc1ccc(CNC(=S)Nc2ccccc2F)cc1 | > 41.7
12 | CCOC(=O)c1sc(Nc2ccc(Br)cc2)nc1C | 1.2 (≈ 3.52 µM)
13 | CC(=Nc1ccccc1N)c1c(O)n(C)c(=O)[nH]c1=O | > 41.1
14 | O=c1[nH]c2cc3c(cc2cc1CN(Cc1cccnc1)C(=S)NCc1ccco1)OCCO3 | < 0.2
15 | Cc1ccc2c(c1)NC(=O)c1cccc([N+](=O)[O-])c1CO2 | 7 (≈ 24.6 µM)
16 | COc1ccc(S(=O)(=O)NC(C)C(=O)NCc2ccncc2)cc1Cl (centres undefined) | > 57.6
17 | CCOC(=O)CN1C(=O)CCSc2ccc(Cl)cc21 | > 45
18 | CC(C)c1ccccc1NC(=O)COC(=O)c1cccnc1 | > 44.8
19 | CC(C)c1ccc(NC(=O)CCc2ccccc2)cc1 | 3.9 (≈ 14.6 µM)
20 | O=C(CSc1ccccc1C(=O)O)Nc1ccc2c(c1)OCO2 | > 49.7

Row | Structure (SMILES) | solubility kinetic [µg/mL]
21 | O=C(Nc1ccc2c(c1)Cc1ccccc1-2)c1cccnc1 | 1.4 (≈ 4.89 µM)
22 | Cn1cccc1C(=O)OCC(=O)NCCc1ccccc1 | > 42.9
23 | O=c1c2nccnc2[nH]c(=S)n1Cc1ccccc1Cl | > 45.7
24 | Cc1ccc(S(=O)(=O)NC(C)(C)CN2CCCCC2)cc1 | > 46.6
25 | CC1CCN(S(=O)(=O)c2ccc3c(c2)oc(=O)n3C)CC1 | 3 (≈ 9.67 µM)
26 | Cc1ccc(C)c(-c2csc(NC(=O)c3c(C)noc3C)n2)c1 | 2.1 (≈ 6.41 µM)
27 | CCc1ccccc1N1CC(C(=O)Nc2cc(C)on2)CC1=O (centres undefined) | > 47
28 | NC(=O)c1cnn(-c2ccc3ccccc3c2)c1N | > 37.8
29 | CCOc1ccc(CN(C)C(=O)Cc2c[nH]c3ccccc23)cc1 | 42 (≈ 130 µM)
30 | Cc1cccc(CC(=O)N2CCN(C(=O)c3ccco3)CC2)c1 | > 46.9
31 | CCOC(=O)C1CCN(C(=O)CC2(CC(=O)O)CCCC2)CC1 | 45.5 (≈ 140 µM)
32 | O=C(OCC(=O)N1CCN(C(=O)c2ccco2)CC1)c1cc(F)c(F)cc1Cl | > 61.9
33 | Cc1ccc(OCCn2cnc3c2c(=O)n(C)c(=O)n3C)cc1 | 6.3 (≈ 20 µM)
34 | COC(=O)c1ccc(C(=O)OC)c(NC(=S)N2CCN(C)CC2)c1 | > 52.7
35 | O=C(NCC1COc2ccccc2O1)C1(c2ccccc2)CCCC1 (centres undefined) | 17.8 (≈ 52.8 µM)
36 | COc1cc(C(C[N+](=O)[O-])c2c(C)cc3ccccn23)ccc1O (centres undefined) | 8.9 (≈ 27.3 µM)
37 | Cc1[nH]c(=O)[nH]c(=O)c1S(=O)(=O)Nc1ccc(F)c([N+](=O)[O-])c1 | > 51.6
38 | Cc1ccnc(NCc2ccc(Cl)cc2)c1 | 3.7 (≈ 15.9 µM)
39 | CC(CN1CCOCC1)OC(=O)c1cccc(Cl)c1.Cl (centres undefined) | 43.2
40 | CC(=O)Nc1ccc(NC(=O)COC(=O)c2ccc(S(=O)(=O)NCc3ccco3)cc2)cc1 | 8.9 (≈ 18.9 µM)

Row | Structure (SMILES) | solubility kinetic [µg/mL]
41 | Cc1ccc(NC(=O)COC(=O)c2ccc[n+]([O-])c2)c(Br)c1 | > 54.8
42 | C=CCn1c(O)c(C=NCCCn2ccnc2)c(=O)[nH]c1=O | > 45.5
43 | Cc1cnc([N+](=O)[O-])n1CCOC(=O)NC(=O)c1c(F)cccc1F | > 53.1
44 | CC(NC(=O)c1ccc(F)cc1)C(=O)NC1=NCCS1 (centres undefined) | > 44.3
45 | COC(=O)c1cccc(NC(=O)CN2CCc3ccccc3C2)c1 | 39.6 (≈ 122 µM)
46 | Cc1noc(NS(=O)(=O)c2ccc(NC(=O)c3cc4ccccc4o3)cc2)c1C | 61.6 (≈ 150 µM)
47 | CCOc1ncccc1C(=O)OCC(=O)NC(=O)NC(C)C | 44.6 (≈ 144 µM)
48 | Cc1nc(-c2noc(-c3ccc(Cl)cc3)n2)c(C(F)(F)F)o1 | < 0.2
49 | O=C(c1ccc2ccccc2c1)N1CCc2ccccc21 | < 0.6
50 | COC(=O)Nc1ccc(S(=O)(=O)N2CCCC(C(=O)NCC3CCCO3)C2)cc1 (centres undefined) | > 63.8
51 | Cc1ccc(CONC(=O)c2ccc(C)cc2)cc1 | 20.2 (≈ 79.1 µM)
52 | Cc1occc1C(=O)N1CCCC(Nc2ccc(F)c(F)c2)C1 (centres undefined) | 46.6 (≈ 145 µM)
53 | CN(C)c1cc(-c2ccc([N+](=O)[O-])cc2)oc(=O)c1Cl | 0.9 (≈ 3.05 µM)
54 | CN(C(=O)Nc1cnccc1C(F)(F)F)C1CCCCC1 | 41.1 (≈ 136 µM)
55 | O=C(NCCO)/C(=C/c1cccc([N+](=O)[O-])c1)NC(=O)c1ccco1 | > 51.8
56 | CCc1nc(C)cn1S(=O)(=O)c1ccc(Br)cc1 | > 49.4
57 | [O-][N+]1=c2ccc(Nc3ccccc3)cc2=NC12CCCCC2 | < 0.2
58 | Cc1ccc(-c2csc(NC(=O)c3c(C)noc3C)n2)cc1 | 6.4 (≈ 20.4 µM)
59 | Cc1ccc(C)c(NC(=O)Cn2cnc3c(oc4ccccc43)c2=O)c1 | < 0.2
